Read-outs that look alike come from different tables or passages of the source.
Columns and labels:
[1] = target: T1, human prostaglandin E2 (subtype EP2) receptor (Homo sapiens, UniProt P43116); test: cAMP agonism assay (HTRF cAMP detection); type: cell-based
T1 construct: host or cells: cells in a cell culture plate
Experimental: (§1) The binding of PGE2 to the EP2 subtype of the human PGE2 receptor induces activation of membrane-associated adenylate cyclases and leads to the formation of cAMP. In the presence of the phosphodiesterase inhibitor IBMX, cAMP which has accumulated due to this stimulation and been released by cell lysis is employed in a competitive detection method. In this assay, the cAMP in the lysate competes with cAMP-XL665 for binding of an Eu cryptate-labeled anti-cAMP antibody.
(§2) The two signals are measured in a suitable measuring instrument with a time lag, i.e. after the background fluorescence has declined.
(§3) The substance solutions (0.75 μl) containing 30% DMSO are introduced into an assay plate and dissolved in 16 μl of a KRSB+IBMX stimulation solution (1× Krebs-Ringer Bicarbonate Buffer; Sigma-Aldrich #K-4002; including 750 μM 3-isobutyl-1-methylxanthine Sigma-Aldrich #I-7018), and then 15 μl thereof are transferred into a media-free cell culture plate which has been washed with KRSB shortly beforehand.
(§4) After incubation at room temperature (RT; volume: ˜15 μl) for 60 minutes, the reaction is then stopped by adding 5 μl of lysis buffer and incubated at RT for a further 20 min (volume: ˜20 μl). The cell lysate is then transferred into a measuring plate and measured in accordance with the manufacturer's information (cyclic AMP kit Cisbio International #62AMPPEC).

[2] = target: T1, human prostaglandin E2 (subtype EP2) receptor; test: cAMP antagonism assay (HTRF cAMP detection, in the presence of PGE2); type: cell-based
Experimental: as §1, §2, §3
as §4, with “preincubation” for “incubation”, “(RT) for 30 minutes, 5 μl of a 4×PGE2 solution (11 nM) are added, and incubation is carried out in the presence of the agonist at RT for a further 60 min (volume: ˜20” for “(RT; volume: ˜15”, “before” for “for 60 minutes,”, “˜25” for “˜20”

cumulus-oocyte complexes = test: Cumulus expansion assay in vitro; type: cell-based, mice; settings: competing with PGE2
Experimental: Folliculogenesis is induced in immature female mice (strain: CD1 (ICR) from Charles River) at an age of 14-18 days by a single dose (intraperitoneally) of 10 I.U. of PMSG (Pregnant Mare Serum Gonadotropin; Sigma G-4877, Batch 68H0909). 47-50 hours after the injection, the ovaries are removed and the cumulus-oocyte complexes are removed. The cumulus complex is not yet expanded at this stage.
The cumulus-oocyte complexes are then incubated with prostaglandin E2 (PGE2) (1 μM), vehicle control (ethanol) or test substances for 20-24 hours. Medium: alpha-MEM medium with 0.1 mM IBMX, pyruvates (0.23 mM), glutamines (2 mM), pen/strep (100 IU/ml pen. and 100 μg/ml strep.) and HSA (8 mg/ml). Cumulus expansion is then established through the division into four stages (according to Vanderhyden et al. Dev Biol. 1990 August; 140(2):307-317).

[3] = cAMP agonism assay, EP2 receptor, read-out: Agonism [ED50
[4] = cAMP antagonism assay, EP2 receptor, in presence of PGE2, read-out: Antagonism [IC50

T1 sequence (P43116 whole entry): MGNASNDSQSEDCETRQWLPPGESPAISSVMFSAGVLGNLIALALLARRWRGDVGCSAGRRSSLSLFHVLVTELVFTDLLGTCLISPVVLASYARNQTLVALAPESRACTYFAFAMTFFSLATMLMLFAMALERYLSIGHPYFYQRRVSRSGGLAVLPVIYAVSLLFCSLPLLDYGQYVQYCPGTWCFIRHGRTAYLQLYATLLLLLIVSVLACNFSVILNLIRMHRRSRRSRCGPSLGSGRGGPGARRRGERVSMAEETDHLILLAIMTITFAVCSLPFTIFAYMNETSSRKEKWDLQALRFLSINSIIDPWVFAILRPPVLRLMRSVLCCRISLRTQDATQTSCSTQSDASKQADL

For `O=C(NC1CCN(c2ccnc3cc(Br)ccc23)CC1)c1cccc(Cl)c1Cl` [Example 36, N-[1-(7-Bromo-quinolin-4-yl)-piperidin-4-yl]-2,3-dichloro-benzamide], the EC50 [1, 3] was > 19 µM and the IC50 [2, 4] was 0.1 µM.
With `O=C(NC1CCN(c2ccnc3cc(Cl)ccc23)CC1)c1ccccc1Cl` [Example 4, 2-Chloro-N-[1-(7-chloro-quinolin-4-yl)-piperidin-4-yl]-benzamide] the EC50 [1, 3] was > 19 µM and the IC50 [2, 4] was 1 µM.
In the case of `O=C(NC1CCN(c2ncnc3cc(Cl)ccc23)CC1)c1cccc(Cl)c1Cl` [Example 37, 2,3-Dichloro-N-[1-(7-chloro-quinazolin-4-yl)-piperidin-4-yl]-benzamide], the EC50 [1, 3] is reported as > 19 µM and the IC50 [2, 4] is reported as 0.6 µM.
In the case of `O=C(NC1CCN(c2ccnc3cc(Cl)ccc23)CC1)c1ccc(F)c(F)c1F` [Example 20, N-[1-(7-Chloro-quinolin-4-yl)-piperidin-4-yl]-2,3,4-trifluoro-benzamide], the EC50 [1, 3] is reported as > 19 µM and the IC50 [2, 4] is reported as 1.6 µM.
`O=C(NC1CCN(c2ccnc3cc(Cl)ccc23)CC1)c1ccc([N+](=O)[O-])o1` [Example 26, 5-Nitro-furan-2-carboxylic acid [1-(7-chloro-quinolin-4-yl)-piperidin-4-yl]-amide] was tested, and the EC50 [1, 3] was > 19 µM and the IC50 [2, 4] was 2 µM.
`O=C(NC1CCN(c2ccnc3cc(Cl)ccc23)CC1)c1cccc(Cl)c1Cl` [Example 25, 2,3-Dichloro-N-[1-(7-chloro-quinolin-4-yl)-piperidin-4-yl)-benzamide] was tested, and the “suppression of cumulus expansion” value (cumulus-oocyte complexes; one tenth of the concentration (of 100-200 μM)) was ~50%, the EC50 [1, 3] was > 19 µM and the EC50 ([1]; cellular agonism test, read-out: EC50 in the cellular agonism test) was > 19 µM. The IC50 ([2]; antagonism test, read-out: IC50 in the antagonism test) was 0.2 µM.
In the case of `CC(C)Oc1ccc2c(=O)c3cc(C(=O)O)ccc3oc2c1` [AH 6809, reference compound], the “suppression of cumulus expansion” value (cumulus-oocyte complexes; concentration of 100-200 μM) is reported as “about 20%”.
For `O=C(NC1CCN(c2ccnc3cc(C(F)(F)F)ccc23)CC1)c1cccc(Cl)c1Cl` [Example 34, 2,3-Dichloro-N-[1-(7-trifluoromethyl-quinolin-4-yl)-piperidin-4-yl]-benzamide], the EC50 [1, 3] was > 19 µM and the IC50 [2, 4] was 0.2 µM.
In the case of `N#Cc1ccc2c(N3CCC(NC(=O)c4cccc(Cl)c4Cl)CC3)ccnc2c1` [Example 40, 2,3-Dichloro-N-[1-(7-cyano-quinolin-4-yl)-piperidin-4-yl]-benzamide], the EC50 [1, 3] is reported as > 19 µM and the IC50 [2, 4] is reported as 0.9 µM.
With `O=C(NC1CCN(c2ccnc3cc(Cl)ccc23)CC1)c1ccccc1Br` [Example 1, 2-Bromo-N-[1-(7-chloro-quinolin-4-yl)-piperidin-4-yl]-benzamide] the EC50 [1, 3] was > 19 µM and the IC50 [2, 4] was 0.6 µM.
In the case of `O=C(NC1CCN(c2ccnc3cc(Cl)ccc23)CC1)c1ccccc1I` [Example 10, N-[1-(7-Chloro-quinolin-4-yl)-piperidin-4-yl]-2-iodo-benzamide], the IC50 [2, 4] is reported as 1.3 µM.
With `O=C(NC1CCN(c2ccnc3c(Cl)cccc23)CC1)c1cccc(Cl)c1Cl` [Example 35, 2,3-Dichloro-N-[1-(8-chloro-quinolin-4-yl)-piperidin-4-yl]-benzamide] the EC50 [1, 3] was > 19 µM and the IC50 [2, 4] was 0.1 µM.
